The test deals with SN12K1 renal. The test can be described thus: NCI-60 cell line screen, 48 h.

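96-well plates; 48 h exposure; 5 concentrations. Endpoints by linear interpolation between flanking doses. Not reached: highest tested concentration assigned. TGI is the concentration that stops growth completely.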

Our source for the TGI values is PubChem BioAssay (NCI).

On to `CNC(=O)OCc1nc(SC2CCCCO2)n(C)c1COC(=O)NC` (configuration not stated), for which the TGI is over 100 µM.

For `COc1cc(C2c3cc4c(cc3[C@@H](Nc3ccc(C#N)cc3)C3COC(=O)[C@H]23)OCO4)cc(OC)c1O` (some centres not stated), the TGI amounted to 3.94 µM.
